Experimental findings from patent US20070270434A1, “SULFONYL-SUBSTITUTED BICYCLIC COMPOUNDS AS MODULATORS OF PPAR” (KALYPSYS, INC., priority 2006, published 2007) are described below.

What all share (assay type): cell-based, murine and human
Holding throughout (conditions): 20-24 hours

Experiment [1] concerns the target T1, PPAR-alpha ligand binding domain fused to GAL4 DNA binding domain (UniProt Q07869).
T1 sequence (Q07869 1-468): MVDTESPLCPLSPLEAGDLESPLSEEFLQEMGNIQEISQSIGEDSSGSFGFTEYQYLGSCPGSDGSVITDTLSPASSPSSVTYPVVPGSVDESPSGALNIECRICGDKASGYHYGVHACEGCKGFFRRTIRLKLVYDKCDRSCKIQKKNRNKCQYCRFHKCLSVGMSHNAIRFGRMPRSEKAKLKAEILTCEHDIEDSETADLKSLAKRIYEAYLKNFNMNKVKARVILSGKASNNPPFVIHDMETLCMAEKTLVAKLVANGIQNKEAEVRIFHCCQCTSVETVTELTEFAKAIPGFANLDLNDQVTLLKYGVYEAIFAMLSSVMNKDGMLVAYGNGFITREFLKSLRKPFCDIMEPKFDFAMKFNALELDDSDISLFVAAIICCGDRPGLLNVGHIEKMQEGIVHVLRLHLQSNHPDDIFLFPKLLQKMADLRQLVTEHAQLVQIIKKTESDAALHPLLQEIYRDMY
As to the kind of experiment: Transient transfection transactivation assay in CV-1 cells, PPAR-alpha (GAL4 chimera, luciferase reporter). The source says: (§1) Compounds may be screened for functional potency in transient transfection assays in CV-1 cells for their ability to activate the PPAR subtypes (transactivation assay). A previously established chimeric receptor system was utilized to allow comparison of the relative transcriptional activity of the receptor subtypes on the same synthetic response element and to prevent endogenous receptor activation from complicating the interpretation of results. See, for example, Lehmann, J. M.; Moore, L. B.; Smith-Oliver, T. A; Wilkinson, W. O.; Willson, T. M.; Kliewer, S. A., An antidiabetic thiazolidinedione is a high affinity ligand for peroxisome proliferator-activated receptor […], J. Biol. Chem., 1995, 270, 12953-6. The ligand binding domains for murine and human PPAR-alpha, PPAR-gamma, and PPAR-delta are each fused to the yeast transcription factor GAL4 DNA binding domain. CV-1 cells were transiently transfected with expression vectors for the respective PPAR chimera along with a reporter construct containing four or five copies of the GAL4 DNA binding site driving expression of luciferase. After 8-16 h, the cells are replated into multi-well assay plates and the media is exchanged to phenol-red free DME medium supplemented with 5% delipidated calf serum. 4 hours after replating, cells were treated with either compounds or 1% DMSO for 20-24 hours. Luciferase activity was then assayed with Britelite (Perkin Elmer) following the manufacturer's protocol and measured with either the Perkin Elmer Viewlux or Molecular Devices Acquest (see, for example, Kliewer, S. A., et. al. Cell 1995, 83, 813-819). Rosiglitazone is used as a positive control in the PPARγ assay. Wy-14643 and GW7647 are used as positive controls in the PPARα assay. GW501516 is used as the positive control in the PPARδ assay.
(In general: Reporter assays use an easily measured gene product as a stand-in for the process of interest.)

Experiment [2] has as its target T2, PPAR-delta ligand binding domain fused to GAL4 DNA binding domain (UniProt Q03181).
T2 sequence (Q03181 1-441): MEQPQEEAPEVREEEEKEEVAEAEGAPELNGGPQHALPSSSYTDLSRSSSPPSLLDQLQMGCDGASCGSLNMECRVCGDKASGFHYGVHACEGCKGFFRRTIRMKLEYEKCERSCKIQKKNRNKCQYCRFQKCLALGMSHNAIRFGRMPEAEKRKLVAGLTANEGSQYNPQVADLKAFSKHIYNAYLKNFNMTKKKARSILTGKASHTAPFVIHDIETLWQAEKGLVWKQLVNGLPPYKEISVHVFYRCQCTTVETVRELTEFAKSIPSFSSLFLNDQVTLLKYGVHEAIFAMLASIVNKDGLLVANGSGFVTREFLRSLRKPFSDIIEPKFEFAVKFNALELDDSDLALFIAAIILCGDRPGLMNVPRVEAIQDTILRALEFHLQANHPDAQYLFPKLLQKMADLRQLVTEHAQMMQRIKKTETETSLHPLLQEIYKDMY
As to the kind of experiment: Transient transfection transactivation assay in CV-1 cells, PPAR-delta (GAL4 chimera, luciferase reporter).
From the text: as §1

Experiment [3] concerns the target T3, PPAR-gamma ligand binding domain fused to GAL4 DNA binding domain (UniProt P37231).
T3 sequence (P37231 1-505): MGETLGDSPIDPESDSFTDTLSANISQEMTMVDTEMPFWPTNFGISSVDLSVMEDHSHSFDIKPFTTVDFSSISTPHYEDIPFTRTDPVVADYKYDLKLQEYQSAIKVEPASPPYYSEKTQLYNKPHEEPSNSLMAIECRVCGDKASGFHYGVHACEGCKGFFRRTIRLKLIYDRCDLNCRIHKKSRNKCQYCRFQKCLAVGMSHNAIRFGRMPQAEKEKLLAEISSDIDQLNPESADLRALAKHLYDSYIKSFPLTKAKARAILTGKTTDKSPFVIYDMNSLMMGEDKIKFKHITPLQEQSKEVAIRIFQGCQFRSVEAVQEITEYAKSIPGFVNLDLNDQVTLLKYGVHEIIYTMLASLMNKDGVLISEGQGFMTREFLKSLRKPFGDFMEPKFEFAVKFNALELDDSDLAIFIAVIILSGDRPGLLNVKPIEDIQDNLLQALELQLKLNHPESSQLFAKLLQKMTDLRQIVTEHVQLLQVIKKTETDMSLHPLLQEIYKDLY
In words: Transient transfection transactivation assay in CV-1 cells, PPAR-gamma (GAL4 chimera, luciferase reporter).
From the text: as §1

In general, EC50 refers to the concentration at which the effect is half-maximal. Read a high EC50 as a less potent agent.

With `C[C@@H]1CN(Cc2ccc(SC(F)(F)F)cc2)C[C@H](C)N1S(=O)(=O)c1cccc2c1CC(C(=O)O)C2` (stereo partly drawn) [Example 6, 4-(cis-2,6-Dimethyl-4-(4-(trifluoromethylthio)benzyl)piperazin-1-ylsulfonyl)-2,3-dihydro-1H-indene-2-carboxylic acid], the EC50 in experiment [1] is 5 to 100 µM; in experiment [2], less than 5 µM; in experiment [3], 5 to 100 µM.
As for `C[C@@H]1CN(Cc2ccc(C(F)(F)F)c(F)c2)C[C@H](C)N1S(=O)(=O)c1cccc2c1CC(C(=O)O)C2` (stereo partly drawn) [Example 1, 4-(4-(3-Fluoro-4-(trifluoromethyl)benzyl)-cis-2,6-dimethylpiperazin-1-ylsulfonyl)-2,3-dihydro-1H-indene-2-carboxylic acid], the concentration for a half-maximal effect (EC50) in experiment [1] is more than 100 µM; in experiment [2], less than 5 µM; in experiment [3], more than 100 µM.
On to `O=C(O)C1Cc2cccc(S(=O)(=O)N3CCN(C(=O)c4ccc(OC(F)(F)F)cc4)CC3)c2C1` (stereo not drawn) [Example 18, 4-(4-(4-(trifluoromethoxy)benzoyl)piperazin-1-ylsulfonyl)-2,3-dihydro-1H-indene-2-carboxylic acid], for which the EC50 in experiment [1] was more than 100 µM; in experiment [2], 5 to 100 µM; in experiment [3], more than 100 µM.
Consider `C[C@@H]1CN(Cc2ccc(OC(F)(F)F)c(F)c2)C[C@H](C)N1S(=O)(=O)c1cccc2c1CC(C(=O)O)C2` (stereo partly drawn) [Example 5], for which the EC50 in experiment [1] was 5 to 100 µM; in experiment [2], less than 5 µM; in experiment [3] it was 5 to 100 µM.
As to `C[C@@H]1CN(Cc2cccc(OC(F)(F)F)c2)C[C@H](C)N1S(=O)(=O)c1cccc2c1CC(C(=O)O)C2` (stereo partly drawn) [Example 3, 4-[cis-2,6-Dimethyl-4-(3-(trifluoromethoxy)benzyl)piperazine-1-sulfonyl]-2,3-dihydro-1H-indene-2 carboxylic acid], the values for the concentration for a half-maximal effect (EC50) in experiment [1], in experiment [2] and in experiment [3] were more than 100 µM, less than 5 µM and 5 to 100 µM, respectively.
With `O=C(O)C1Cc2cccc(S(=O)(=O)N3CCN(CCc4ccc(OC(F)(F)F)cc4)CC3)c2C1` (stereo not drawn) [Example 15, 4-(4-(4-(Trifluoromethoxy)phenethyl)piperazin-1-ylsulfonyl)-2,3-dihydro-1H-indene-2-carboxylic acid], the values for the half-maximal effective concentration (EC50) in experiment [1], in experiment [2] and in experiment [3] were 5 to 100 µM, less than 5 µM and 5 to 100 µM, respectively.
Consider `O=C(O)C1Cc2cccc(S(=O)(=O)N3CCN(Cc4cccc(OC(F)(F)F)c4)CC3)c2C1` (stereo not drawn) [Example 2], for which the EC50 in experiment [1] is more than 100 µM; in experiment [2], less than 5 µM; in experiment [3], less than 5 µM.
`O=C(O)C1Cc2cccc(S(=O)(=O)N3CCN(C(=O)Cc4ccc(C(F)(F)F)cc4)CC3)c2C1` (stereo not drawn) [Example 20, 4-(4-(2-(4-(trifluoromethyl)phenyl)acetyl)piperazin-1-ylsulfonyl)-2,3-dihydro-1H-indene-2-carboxylic acid]: the values for the 50% effective concentration (EC50) in experiment [1], in experiment [2] and in experiment [3] were more than 100 µM, 5 to 100 µM and 5 to 100 µM, respectively.
As to `C[C@@H]1CN(C(=O)Cc2ccc(OC(F)(F)F)cc2)C[C@H](C)N1S(=O)(=O)c1cccc2c1CC(C(=O)O)C2` (stereo partly drawn) [Example 7, 4-(cis-2,6-Dimethyl-4-(2-(4-(trifluoromethoxy)phenyl)acetyl)piperazin-1-ylsulfonyl)-2,3-dihydro-1H-indene-2-carboxylic acid], the EC50 in experiment [1] was more than 100 µM; in experiment [2] it was less than 5 µM; in experiment [3] it was more than 100 µM.
As to `C[C@@H]1CN(CCc2ccc(OC(F)(F)F)cc2)C[C@H](C)N1S(=O)(=O)c1cccc2c1CC(C(=O)O)C2` (mixture of isomers) [Example 12A, 4-(cis-2,6-Dimethyl-4-(4-(trifluoromethoxy)phenethyl)piperazin-1-ylsulfonyl)-2,3-dihydro-1H-indene-2-carboxylic acid], the concentration for a half-maximal effect (EC50) in experiment [1] is more than 100 µM; in experiment [2], less than 5 µM; in experiment [3], more than 100 µM.
For `C[C@@H]1CN(CCc2ccc(Cl)c(Cl)c2)C[C@H](C)N1S(=O)(=O)c1cccc2c1CC(C(=O)O)C2` (stereo partly drawn) [Example 27], the values for the half-maximal effective concentration (EC50) in experiment [1], in experiment [2] and in experiment [3] were more than 100 µM, less than 5 µM and more than 100 µM, respectively.
